Experimental data published in US10294202B2, “Pyrrolidinones as herbicides” (FMC Corporation, priority 2013, dated 2019).

Key:
kochia = experiment: Test D pre-/postemergence herbicide test; format: in vivo, Kochia scoparia; conditions: Postemergence, Kochia, scale 0 to 100
How it was run: (§1)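 Greenhouse pre- and postemergence screen with surfactant-containing non-phytotoxic solvent formulations. Silt loam soil served for preemergence application, and peat/vermiculite medium for postemergence application at 2–18 cm height. Visual 0–100 control ratings versus controls were recorded 7 to 21 days later.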

chamomile = experiment: Test D pre-/postemergence herbicide test; format: in vivo, Matricaria inodora; conditions: Postemergence, Chamomile, scale 0 to 100
Source text: (§2) Seeds of plant species selected from bluegrass (annual bluegrass, Poa annua), blackgrass (Alopecurus myosuroides), canarygrass (littleseed canarygrass, Phalaris minor), chickweed (common chickweed, Stellaria media), galium (catchweed bedstraw, Galium aparine), bromegrass, downy (downy bromegrass, Bromus tectorum), field poppy (Papaver rhoeas), field violet (Viola arvensis), foxtail, green (green foxtail, Setaria viridis), deadnettle (henbit deadnettle, Lamium amplexicaule), ryegrass, Italian (Italian ryegrass, Lolium multiflorum), kochia (Kochia scoparia), lambsquarters (Chenopodium album), oilseed rape (Brassica napus), pigweed (Amaranthus retroflexus), chamomile (scentless chamomile, Matricaria inodora), Russian thistle (Salsola kali), speedwell (bird's-eye speedwell, Veronica persica), barley, spring (spring barley, Hordeum vulgare), wheat, spring (spring wheat, Triticum aestivum), buckwheat, wild (wild buckwheat, Polygonum convolvulus), mustard, wild (wild mustard, Sinapis arvensis), oat, wild (wild oat, Avena fatua), radish, wild (wild radish, Raphanus raphanistrum), […]), barley, winter (winter barley, Hordeum vulgare), and wheat, winter (winter wheat, Triticum aestivum) were planted into a silt loam soil and treated preemergence with test chemicals formulated in a non-phytotoxic solvent mixture which included a surfactant. At the same time, these species were planted in pots containing Redi-Earth® planting medium (Scotts Company, 14111 Scottslawn Road, Marysville, Ohio 43041) comprising spaghnum peat moss, vermiculite, wetting agent and starter nutrients and treated with postemergence applications of the test chemicals formulated in the same manner. Plants ranged in height from 2 to 18 cm (1- to 4-leaf stage). Treated plants and controls were maintained in a controlled growth environment for 7 to 21 days after which time all species were compared to controls and visually evaluated. Plant response ratings, summarized in Table D, are based on a scale of 0 to 100 where 0 is no effect and 100 is complete control. A dash (-) response means no test result.

field poppy = experiment: Test D pre-/postemergence herbicide test; format: in vivo, Papaver rhoeas; conditions: Postemergence, Field Poppy, scale 0 to 100
Source text: as §2

oilseed rape = experiment: Test D pre-/postemergence herbicide test; format: in vivo, Brassica napus; conditions: Postemergence, Oilseed Rape, scale 0 to 100
How it was run: as §1

barley (winter barley) = experiment: Test C postemergence herbicide test; format: in vivo, Hordeum vulgare
Source text: At the same time, plants selected from these crop and weed species and also barley (winter barley, Hordeum vulgare), […]), chickweed (common chickweed, Stellaria media), deadnettle (henbit deadnettle, Lamium amplexicaule), and canarygrass (littleseed canarygrass, Phalaris minor) were planted in pots containing Redi-Earth® planting medium (Scotts Company, 14111 Scottslawn Road, Marysville, Ohio 43041) comprising spaghnum peat moss, vermiculite, wetting agent and starter nutrients and treated with postemergence applications of test chemicals formulated in the same manner. Plants ranged in height from 2 to 18 cm (1- to 4-leaf stage) for postemergence treatments. Treated plants and controls were maintained in a greenhouse for 13 to 15 days, after which time all species were compared to controls and visually evaluated. Plant response ratings, summarized in Table C, are based on a scale of 0 to 100 where 0 is no effect and 100 is complete control. A dash (-) response means no test result.

buckwheat, wild = experiment: Test D pre-/postemergence herbicide test; format: in vivo, Polygonum convolvulus; conditions: Postemergence, Buckwheat, Wild, scale 0 to 100
How it was run: as §1

lambsquarters = experiment: Test E preemergence herbicide test; format: in vivo, Chenopodium album; parameters: key: 0 = no effect, 100 = complete control
How it was run: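 Test chemicals, formulated in a surfactant-containing non-phytotoxic solvent blend, are applied preemergence to seeded silt loam soil. After 21 days in the greenhouse, response is scored visually relative to controls, where 100 means complete control and 0 means no effect.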

beggarticks = experiment: Test E preemergence herbicide test; format: in vivo, Bidens pilosa; parameters: key: 0 = no effect, 100 = complete control
Source text: (§3) Seeds of plant species selected from corn (Zea mays), soybean (Glycine max), velvetleaf (Abutilon theophrasti), lambsquarters (Chenopodium album), wild poinsettia (Euphorbia heterophylla), pigweed, palmer (palmer pigweed, Amaranthus palmeri), waterhemp (common waterhemp, Amaranthus rudis), surinam grass (Brachiaria decumbens), crabgrass, large (large crabgrass, Digitaria sanguinalis), crabgrass, Brazil (Brazilian crabgrass, Digitaria horizontalis), panicum, fall (fall panicum, Panicum dichotomiflorum), foxtail, giant (giant foxtail, Setaria faberii), foxtail, green (green foxtail, Setaria viridis), goosegrass (Eleusine indica), johnsongrass (Sorghum halepense), ragweed (common ragweed, Ambrosia elatior), barnyardgrass (Echinochloa crus-galli), sandbur (southern sandbur, Cenchrus echinatus), arrowleaf […] rhombifolia), ryegrass, Italian (Italian ryegrass, Lolium multiflorum), dayflower, VA (Virginia dayflower, Commelina virginica), field bindweed (Convolvulus arvensis), morningglory (Ipomoea coccinea), nightshade (eastern black nightshade, Solanum ptycanthum), kochia (Kochia scoparia), nutsedge, yellow (yellow nutsedge, Cyperus esculentus), cocklebur (common cocklebur, Xanthium strumarium), smartweed (ladysthumb smartweed, Polygonum Persicaria) and beggarticks (hairy beggarticks, Bidens pilosa), were planted into a silt loam soil and treated preemergence with test chemicals formulated in a non-phytotoxic solvent mixture which included a surfactant. Treated plants and controls were maintained in a greenhouse for 21 days, after which time all species were compared to controls and visually evaluated. Plant response ratings, summarized in Table E, are based on a scale of 0 to 100 where 0 is no effect and 100 is complete control. A dash (-) response means no test result.

sandbur = experiment: Test E preemergence herbicide test; format: in vivo, Cenchrus echinatus; parameters: key: 0 = no effect, 100 = complete control
Source text: as §3

foxtail, giant = experiment: Test E preemergence herbicide test; format: in vivo, Setaria faberii; parameters: key: 0 = no effect, 100 = complete control
Source text: as §3

[1] = 31 g ai/ha, scale 0 (no effect) to 100 (complete control)
[2] = 62 g ai/ha, scale 0 to 100 (0 no effect, 100 complete control)
[3] = 125 g ai/ha, scale 0 to 100 (0 no effect, 100 complete control)
[4] = 250 g ai/ha, scale 0 to 100 (0 no effect, 100 complete control)

With `O=C1NCC(c2cc(F)c(F)c(F)c2)C1C(=O)Nc1ccccc1F` (racemic) [Compound 34] the Plant response rating (kochia; 16 g ai/ha) was 0, the Plant response rating (kochia; 62 g ai/ha) was 0 and the Plant response rating (kochia; 125 g ai/ha) was 10. The Plant response rating (kochia; 250 g ai/ha) was 25, the Plant response rating (chamomile; 16 g ai/ha) was 0 and the Plant response rating (chamomile; 31 g ai/ha) was 0. The Plant response rating (chamomile; 62 g ai/ha) was 0, the Plant response rating (chamomile; 125 g ai/ha) was 0 and the Plant response rating (chamomile; 250 g ai/ha) was 0. It also gave a Plant response rating (field poppy; 16 g ai/ha) of 0, a Plant response rating (field poppy; 31 g ai/ha) of 0 and a Plant response rating (field poppy; 62 g ai/ha) of 0. For the same compound, the Plant response rating (field poppy; 125 g ai/ha) was 0, the Plant response rating (field poppy; 250 g ai/ha) was 20 and the Plant response rating (oilseed rape; 16 g ai/ha) was 0. The Plant response rating (oilseed rape; 31 g ai/ha) was 0, the Plant response rating (oilseed rape; 62 g ai/ha) was 0 and the Plant response rating (oilseed rape; 125 g ai/ha) was 0. For the same compound, the Plant response rating (oilseed rape; 250 g ai/ha) was 20, the “Plant response rating, Barley” value (barley (winter barley); [1]) was 0 and the “Plant response rating, Barley” value (barley (winter barley); [2]) was 0. For the same compound, the “Plant response rating, Barley” value (barley (winter barley); [3]) was 0, the “Plant response rating, Barley” value (barley (winter barley); [4]) was 0 and the Plant response rating (buckwheat, wild; 16 g ai/ha) was 0. The Plant response rating (buckwheat, wild; 31 g ai/ha) was 0, the Plant response rating (buckwheat, wild; 62 g ai/ha) was 0 and the Plant response rating (buckwheat, wild; 125 g ai/ha) was 0. For the same compound, the Plant response rating (buckwheat, wild; 250 g ai/ha) was 0.

In the case of `O=C1NCC(c2ccccc2)C1C(=O)Nc1ccccc1F` (racemic) [Compound 81], the “Plant response rating, Barley” value (barley (winter barley); [1]) is reported as 0, the “Plant response rating, Barley” value (barley (winter barley); [2]) is reported as 0 and the “Plant response rating, Barley” value (barley (winter barley); [3]) is reported as 0. For the same compound, the “Plant response rating, Barley” value (barley (winter barley); [4]) was 0.

With `O=C1NCC(c2cccc(Br)c2)C1C(=O)Nc1ccccc1F` (stereo not shown) [Compound 66] the “Plant response rating, Lambsquarters” value (lambsquarters; 16 g ai/ha) was 0, the “Plant response rating, Lambsquarters” value (lambsquarters; 31 g ai/ha) was 0 and the “Plant response rating, Lambsquarters” value (lambsquarters; 62 g ai/ha) was 0. For the same compound, the “Plant response rating, Lambsquarters” value (lambsquarters; 125 g ai/ha) was 0, the “Plant response rating, Lambsquarters” value (lambsquarters; 250 g ai/ha) was 0 and the “Plant response rating, Beggarticks” value (beggarticks; 16 g ai/ha) was 0. The “Plant response rating, Beggarticks” value (beggarticks; 31 g ai/ha) was 0, the “Plant response rating, Beggarticks” value (beggarticks; 62 g ai/ha) was 0 and the “Plant response rating, Beggarticks” value (beggarticks; 125 g ai/ha) was 0. For the same compound, the “Plant response rating, Beggarticks” value (beggarticks; 250 g ai/ha) was 0, the “Plant response rating, Sandbur” value (sandbur; 16 g ai/ha) was 0 and the “Plant response rating, Sandbur” value (sandbur; 31 g ai/ha) was 0. For the same compound, the “Plant response rating, Sandbur” value (sandbur; 62 g ai/ha) was 0, the “Plant response rating, Sandbur” value (sandbur; 125 g ai/ha) was 0 and the “Plant response rating, Sandbur” value (sandbur; 250 g ai/ha) was 35. The “Plant response rating, Foxtail, Giant” value (foxtail, giant; 16 g ai/ha) was 0, the “Plant response rating, Foxtail, Giant” value (foxtail, giant; 31 g ai/ha) was 0 and the “Plant response rating, Foxtail, Giant” value (foxtail, giant; 62 g ai/ha) was 0. The “Plant response rating, Foxtail, Giant” value (foxtail, giant; 125 g ai/ha) was 98.

For `O=C1NCC(c2ccc(C(F)(F)F)cc2)C1C(=O)Nc1ccc(F)c(F)c1F` (stereo not shown) [Compound 232], the “Plant response rating, Lambsquarters” value (lambsquarters; 31 g ai/ha) was 95, the “Plant response rating, Lambsquarters” value (lambsquarters; 62 g ai/ha) was 98 and the “Plant response rating, Lambsquarters” value (lambsquarters; 125 g ai/ha) was 100. For the same compound, the “Plant response rating, Lambsquarters” value (lambsquarters; 250 g ai/ha) was 98, the “Plant response rating, Beggarticks” value (beggarticks; 31 g ai/ha) was 0 and the “Plant response rating, Beggarticks” value (beggarticks; 62 g ai/ha) was 0. For the same compound, the “Plant response rating, Beggarticks” value (beggarticks; 125 g ai/ha) was 20, the “Plant response rating, Beggarticks” value (beggarticks; 250 g ai/ha) was 60 and the “Plant response rating, Sandbur” value (sandbur; 31 g ai/ha) was 35. The “Plant response rating, Sandbur” value (sandbur; 62 g ai/ha) was 65, the “Plant response rating, Sandbur” value (sandbur; 125 g ai/ha) was 90 and the “Plant response rating, Sandbur” value (sandbur; 250 g ai/ha) was 90. For the same compound, the “Plant response rating, Foxtail, Giant” value (foxtail, giant; 31 g ai/ha) was 35, the “Plant response rating, Foxtail, Giant” value (foxtail, giant; 62 g ai/ha) was 90 and the “Plant response rating, Foxtail, Giant” value (foxtail, giant; 125 g ai/ha) was 95. For the same compound, the “Plant response rating, Foxtail, Giant” value (foxtail, giant; 250 g ai/ha) was 98.
